Test results taken from US20250230193A1, “CYCLIC COMPOUND HAVING SELECTIVE KRAS INHIBITORY EFFECT ON HRAS AND NRAS” (CHUGAI SEIYAKU KABUSHIKI KAISHA, priority 2022, published 2025).

How the values were obtained:
[1] = target: GDP-bound NRAS wild-type protein (Homo sapiens, UniProt P01111); test: Binding to NRAS by surface plasmon resonance (SPR), Single Cycle Kinetics; details: GDP-bound NRAS wild-type vs GDP-bound KRAS wild-type, SPR
[2] = target: GDP-bound HRAS wild-type protein (Homo sapiens, UniProt P01112); test: Binding to HRAS by surface plasmon resonance (SPR), Single Cycle Kinetics; details: GDP-bound HRAS wild-type vs GDP-bound KRAS wild-type, SPR
Chain of GDP-bound HRAS wild-type protein (P01112 whole entry): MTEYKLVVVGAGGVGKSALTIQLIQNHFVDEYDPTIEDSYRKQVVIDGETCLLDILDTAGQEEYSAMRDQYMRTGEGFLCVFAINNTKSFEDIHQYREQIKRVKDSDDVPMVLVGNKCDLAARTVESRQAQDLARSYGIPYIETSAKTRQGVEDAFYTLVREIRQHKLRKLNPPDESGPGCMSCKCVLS

Chain of GDP-bound NRAS wild-type protein (P01111 whole entry): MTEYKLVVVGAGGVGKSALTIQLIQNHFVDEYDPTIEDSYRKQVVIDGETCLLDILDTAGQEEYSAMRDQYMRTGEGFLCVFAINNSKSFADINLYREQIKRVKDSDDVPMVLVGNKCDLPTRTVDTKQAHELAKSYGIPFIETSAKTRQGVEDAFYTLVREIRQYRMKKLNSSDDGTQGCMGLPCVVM

| SMILES | NRAS/KRAS (ratio of KD value for NRAS to KD value for KRAS) [1] | HRAS/KRAS (ratio of KD value for HRAS to KD value for KRAS) [2] | NRAS/KRAS (ratio of KD value with respect to NRAS to KD value with respect to KRAS) [1] | HRAS/KRAS (ratio of KD value with respect to HRAS to KD value with respect to KRAS) [2] |
| --- | --- | --- | --- | --- |
| CCO[C@@H]1C[C@H]2C(=O)NC3(CCC3)C(=O)N(C)[C@@H](C3CCCC3)C(=O)N(C)[C@H](C(=O)N(C)CC)CC(=O)N(C)[C@@H](C3CCC3)C(=O)N[C@@H]([C@@H](C)CC)C(=O)N(C)CC(=O)N(C)[C@H]3C/C=C\CCN(C3=O)[C@@H](Cc3ccc(C(F)(F)F)cc3)C(=O)N(C)CC(=O)N[C@@H](CCc3ccc(C(F)(F)F)c(OC)c3)C(=O)N2C1 [PP2022] | A (a compound having 10 or more and less than 20 is denoted as A) | A (a compound having 10 or more and less than 20 is denoted as A) | – | – |
| CCCN(C)C(=O)[C@@H]1CC(=O)N(C)[C@@H](C2CCC2)C(=O)N[C@@H]([C@@H](C)CC)C(=O)N(C)CC(=O)N(C)[C@H]2C/C=C\CCN(C2=O)[C@@H](Cc2ccc(C(F)(F)F)cc2)C(=O)N(C)CC(=O)N[C@@H](CCc2ccc(C(F)(F)F)c(OC)c2)C(=O)N2C[C@H](OCC)C[C@H]2C(=O)NC2(CCC2)C(=O)N(C)[C@@H](C2CCCC2)C(=O)N1C [PP2023] | A (a compound having 10 or more and less than 20 is denoted as A) | B (a compound having 3 or more and less than 10 is denoted as B) | – | – |
| CCCN(C)C(=O)[C@@H]1CC(=O)N(C)[C@@H](CC(F)F)C(=O)N[C@@H]([C@@H](C)CC)C(=O)N(C)CC(=O)N(C)[C@H]2C/C=C\CCN(C2=O)[C@@H](Cc2ccc(C(F)(F)F)cc2)C(=O)N(C)CC(=O)N[C@@H](CCc2ccc(C(F)(F)F)c(OC)c2)C(=O)N2C[C@@H](C)C[C@H]2C(=O)NC2(CCC2)C(=O)N(C)[C@@H](C2CCCC2)C(=O)N1C [PP2024] | A (a compound having 10 or more and less than 20 is denoted as A) | B (a compound having 3 or more and less than 10 is denoted as B) | – | – |
| CCCN(C)C(=O)[C@@H]1CC(=O)N(C)[C@@H](COCC)C(=O)N[C@@H]([C@@H](C)CC)C(=O)N(C)CC(=O)N(C)[C@H]2C/C=C\CCN(C2=O)[C@@H](Cc2ccc(C(F)(F)F)cc2)C(=O)N(C)CC(=O)N[C@@H](CCc2ccc(C(F)(F)F)c(OC)c2)C(=O)N2C[C@@H](C)C[C@H]2C(=O)NC2(CCC2)C(=O)N(C)[C@@H](C2CCCC2)C(=O)N1C [PP2025] | A (a compound having 10 or more and less than 20 is denoted as A) | B (a compound having 3 or more and less than 10 is denoted as B) | – | – |
| CCOC[C@H]1C(=O)N[C@@H]([C@@H](C)CC)C(=O)N(C)CC(=O)N(C)[C@H]2C/C=C\CCN(C2=O)[C@@H](Cc2ccc(C(F)(F)F)cc2)C(=O)N(C)CC(=O)N[C@@H](CCc2ccc(C(F)(F)F)c(OC)c2)C(=O)N2C[C@@H](C)C[C@H]2C(=O)NC2(CCC2)C(=O)N(C)[C@@H](C2CCCC2)C(=O)N(C)[C@H](C(=O)N(C)CC)CC(=O)N1C [PP2026] | A (a compound having 10 or more and less than 20 is denoted as A) | A (a compound having 10 or more and less than 20 is denoted as A) | – | – |
| CCCOC[C@H]1C(=O)N[C@@H]([C@@H](C)CC)C(=O)N(C)CC(=O)N(C)[C@H]2C/C=C\CCN(C2=O)[C@@H](Cc2ccc(C(F)(F)F)cc2)C(=O)N(C)CC(=O)N[C@@H](CCc2ccc(C(F)(F)F)c(OC)c2)C(=O)N2C[C@@H](C)C[C@H]2C(=O)NC2(CCC2)C(=O)N(C)[C@@H](C2CCCC2)C(=O)N(C)[C@H](C(=O)N(C)CC)CC(=O)N1C [PP2027] | A (a compound having 10 or more and less than 20 is denoted as A) | B (a compound having 3 or more and less than 10 is denoted as B) | – | – |
| CCCOC[C@H]1C(=O)N[C@@H]([C@@H](C)CC)C(=O)N(C)CC(=O)N(C)[C@H]2C/C=C\CCN(C2=O)[C@@H](Cc2ccc(C(F)(F)F)cc2)C(=O)N(C)CC(=O)N[C@@H](CCc2ccc(C(F)(F)F)c(OC)c2)C(=O)N2C[C@@H](C)C[C@H]2C(=O)NC2(CCC2)C(=O)N(C)[C@@H](C2CCCC2)C(=O)N(C)[C@H](C(=O)N(C)CCC)CC(=O)N1C [PP2028] | A (a compound having 10 or more and less than 20 is denoted as A) | B (a compound having 3 or more and less than 10 is denoted as B) | – | – |
| CCCN(C)C(=O)[C@@H]1CC(=O)N(C)[C@@H](CCOC)C(=O)N[C@@H]([C@@H](C)CC)C(=O)N(C)CC(=O)N(C)[C@H]2C/C=C\CCN(C2=O)[C@@H](Cc2ccc(C(F)(F)F)cc2)C(=O)N(C)CC(=O)N[C@@H](CCc2ccc(C(F)(F)F)c(OC)c2)C(=O)N2C[C@@H](C)C[C@H]2C(=O)NC2(CCC2)C(=O)N(C)[C@@H](C2CCCC2)C(=O)N1C [PP2029] | A (a compound having 10 or more and less than 20 is denoted as A) | B (a compound having 3 or more and less than 10 is denoted as B) | – | – |
| CCCN(C)C(=O)[C@@H]1CC(=O)N(C)[C@@H](CC(F)F)C(=O)N[C@@H]([C@@H](C)CC)C(=O)N(C)CC(=O)N(C)[C@H]2C/C=C\CCN(C2=O)[C@@H](Cc2ccc(C(F)(F)F)cc2)C(=O)N(C)CC(=O)N[C@@H](CCc2cc(F)c(C(F)(F)F)c(F)c2)C(=O)N2C[C@H](OCC)C[C@H]2C(=O)NC2(CC(C)(C)C2)C(=O)N(C)[C@@H](C2CCCC2)C(=O)N1C [PP2030] | A (a compound having 10 or more and less than 20 is denoted as A) | A (a compound having 10 or more and less than 20 is denoted as A) | – | – |
| CCCN(C)C(=O)[C@@H]1CC(=O)N(C)[C@@H](COCC)C(=O)N[C@@H]([C@@H](C)CC)C(=O)N(C)CC(=O)N(C)[C@H]2C/C=C\CCN(C2=O)[C@@H](Cc2ccc(C(F)(F)F)cc2)C(=O)N(C)CC(=O)N[C@@H](CCc2cc(F)c(C(F)(F)F)c(F)c2)C(=O)N2C[C@H](OCC)C[C@H]2C(=O)NC2(CC(C)(C)C2)C(=O)N(C)[C@@H](C2CCCC2)C(=O)N1C [PP2031] | B (a compound having 3 or more and less than 10 is denoted as B) | B (a compound having 3 or more and less than 10 is denoted as B) | – | – |
| CCOC[C@H]1C(=O)N[C@@H]([C@@H](C)CC)C(=O)N(C)CC(=O)N(C)[C@H]2C/C=C\CCN(C2=O)[C@@H](Cc2ccc(C(F)(F)F)cc2)C(=O)N(C)CC(=O)N[C@@H](CCc2cc(F)c(C(F)(F)F)c(F)c2)C(=O)N2C[C@H](OCC)C[C@H]2C(=O)NC2(CC(C)(C)C2)C(=O)N(C)[C@@H](C2CCCC2)C(=O)N(C)[C@H](C(=O)N(C)CC)CC(=O)N1C [PP2032] | A (a compound having 10 or more and less than 20 is denoted as A) | B (a compound having 3 or more and less than 10 is denoted as B) | – | – |
| CCO[C@@H]1C[C@H]2C(=O)NC3(CC(C)(C)C3)C(=O)N(C)[C@@H](C3CCCC3)C(=O)N(C)[C@H](C(=O)N(C)CC)CC(=O)N(C)[C@@H](C(C)C)C(=O)N[C@@H]([C@@H](C)CC)C(=O)N(C)CC(=O)N(C)[C@H]3C/C=C\CCN(C3=O)[C@@H](Cc3ccc(C(F)(F)F)cc3)C(=O)N(C)CC(=O)N[C@@H](CCc3cc(F)c(C(F)(F)F)c(F)c3)C(=O)N2C1 [PP2034] | – | – | A (a compound having 10 or more and less than 20 is denoted as A) | A (a compound having 10 or more and less than 20 is denoted as A) |
| CCO[C@@H]1C[C@H]2C(=O)NC3(CC(C)(C)C3)C(=O)N(C)[C@@H](C3CCCC3)C(=O)N(C)[C@H](C(=O)N(C)CC)CC(=O)N(C)[C@@H](C3CC3)C(=O)N[C@@H]([C@@H](C)CC)C(=O)N(C)CC(=O)N(C)[C@H]3C/C=C\CCN(C3=O)[C@@H](Cc3ccc(C(F)(F)F)cc3)C(=O)N(C)CC(=O)N[C@@H](CCc3cc(F)c(C(F)(F)F)c(F)c3)C(=O)N2C1 [PP2036] | – | – | A (a compound having 10 or more and less than 20 is denoted as A) | A (a compound having 10 or more and less than 20 is denoted as A) |
| CCCN(C)C(=O)[C@@H]1CC(=O)N(C)[C@@H](C2CC2)C(=O)N[C@@H]([C@@H](C)CC)C(=O)N(C)CC(=O)N(C)[C@H]2C/C=C\CCN(C2=O)[C@@H](Cc2ccc(C(F)(F)F)cc2)C(=O)N(C)CC(=O)N[C@@H](CCc2cc(F)c(C(F)(F)F)c(F)c2)C(=O)N2C[C@H](OCC)C[C@H]2C(=O)NC2(CC(C)(C)C2)C(=O)N(C)[C@@H](C2CCCC2)C(=O)N1C [PP2037] | – | – | A (a compound having 10 or more and less than 20 is denoted as A) | A (a compound having 10 or more and less than 20 is denoted as A) |
| CCO[C@@H]1C[C@H]2C(=O)NC3(CC(C)(C)C3)C(=O)N(C)[C@@H](C3CCCC3)C(=O)N(C)[C@H](C(=O)N(C)CC)CC(=O)N(C)[C@@H](C3CCC3)C(=O)N[C@@H]([C@@H](C)CC)C(=O)N(C)CC(=O)N(C)[C@H]3C/C=C\CCN(C3=O)[C@@H](Cc3ccc(C(F)(F)F)cc3)C(=O)N(C)CC(=O)N[C@@H](CCc3cc(F)c(C(F)(F)F)c(F)c3)C(=O)N2C1 [PP2038] | – | – | A (a compound having 10 or more and less than 20 is denoted as A) | A (a compound having 10 or more and less than 20 is denoted as A) |
| CCCN(C)C(=O)[C@@H]1CC(=O)N(C)[C@@H](CC(F)F)C(=O)N[C@@H]([C@@H](C)CC)C(=O)N(C)CC(=O)N(C)[C@H]2C/C=C\CCN(C2=O)[C@@H](Cc2ccc(C(F)(F)F)cc2)C(=O)N(C)CC(=O)N[C@@H](CCc2cc(F)c(C(F)(F)F)c(F)c2)C(=O)N2C[C@@H](C)C[C@H]2C(=O)NC2(CC(C)(C)C2)C(=O)N(C)[C@@H](C2CCCC2)C(=O)N1C [PP2040] | – | – | A (a compound having 10 or more and less than 20 is denoted as A) | A (a compound having 10 or more and less than 20 is denoted as A) |
